Source: US10875851B2, “Factor XIIa inhibitors” (Merck Sharp & Dohme Corp., priority 2016, dated 2020)

molecular target: human Factor XIIa (Homo sapiens (Human), UniProt P00748); experiment: Factor XIIa Assay; assay type: biochemical; conditions: purified human Factor XIIa 500 pM; substrate n-Acetyl-Lys-Pro-Arg-AFC 100 μM; pH 7.4; read-out: FXIIa IC50
Outline: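 Purified human FXIIa at 500 pM final with 100 μM n-Acetyl-Lys-Pro-Arg-AFC in 50 mM HEPES, 150 mM NaCl, 5 mM CaCl2, 0.1% PEG 8000, pH 7.4, at room temperature or 37° C. Initial fluorogenic hydrolysis rates measured after enzyme–inhibitor equilibration; IC50 taken where Vi=Vo/2.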

human Factor XIIa, sequence (P00748 373-615): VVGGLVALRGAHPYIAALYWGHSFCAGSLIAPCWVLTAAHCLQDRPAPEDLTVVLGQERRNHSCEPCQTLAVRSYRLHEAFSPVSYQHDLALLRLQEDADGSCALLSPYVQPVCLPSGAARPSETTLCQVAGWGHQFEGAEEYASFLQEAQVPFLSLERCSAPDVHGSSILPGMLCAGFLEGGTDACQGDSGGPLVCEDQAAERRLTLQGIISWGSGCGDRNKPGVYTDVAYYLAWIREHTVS

| Compound | IC50 [nM] |
| --- | --- |
| CN(C)CCCC[C@@H](NC1CCC2(CC1)CCN(Cc1ccccc1)C2)C(=O)N1CCN(C(=O)Oc2ccccc2Cl)C[C@H]1C(=O)NCc1cccs1 (stereo partly drawn) [Example 78, 2-chlorophenyl (3S)-4-[N^2-(2-benzyl-2-azaspiro[4.5]dec-8-yl)-N^6,N^6-dimethyl-D-lysyl]-3-[(thiophen-2-ylmethyl)carbamoyl]piperazine-1-carboxylate] | 0.9 |
| CC(C)N[C@H](CCCCN1CCCCC1)C(=O)N1CCN(C2=NC(C)(C)C(c3ccccc3)O2)C[C@H]1C(=O)NCc1cccc(Cl)c1 (stereo partly drawn) [Example 160, (2S)-N-(3-chlorobenzyl)-4-(4,4-dimethyl-5-phenyl-4,5-dihydro-1,3-oxazol-2-yl)-1-[N-(1-methylethyl)-6-piperidin-1-yl-D-norleucyl]piperazine-2-carboxamide] | 13.8 |
| Cc1ncnc2c(OC(=O)N3CCN(C(=O)[C@@H](CC4CCCCC4)NC4CCCCC4)[C@H](C(=O)NCc4cccs4)C3)cccc12 [Example 29, 4-methylquinazolin-8-yl (3S)-4-(N,3-dicyclohexyl-D-alanyl)-3-[(thiophen-2-ylmethyl)carbamoyl]piperazine-1-carboxylate] | 3.3 |
| C[C@@H]1N=C(N2CCN(C(=O)[C@H](CCCCN(C)C)NC3CCC4(CC3)CCN(Cc3ccccc3)C4)[C@H](C(=O)NCc3cccs3)C2)O[C@H]1c1ccccc1 (stereo partly drawn) [Example 136] | 23.2 |
| C[C@@H]1N=C(N2CCN(C(=O)[C@H](NC3CCC(C(N)=O)CC3)[C@H]3CC[C@H](N4CCCCC4)CC3)[C@H](C(=O)NCc3cccs3)C2)O[C@H]1c1ccccc1 (stereo partly drawn) [Example 119, (2S)-1-[(2R)-2-[(4-carbamoylcyclohexyl)amino]-2-(trans-4-piperidin-1-ylcyclohexyl)acetyl]-4-[(4S,5S)-4-methyl-5-phenyl-4,5-dihydro-1,3-oxazol-2-yl]-N-(thiophen-2-ylmethyl)piperazine-2-carboxamide] | 1.5 |
| NCc1ccc(CNC(=O)[C@@H]2CN(C(=O)Oc3ccccc3Cl)CCN2C(=O)[C@@H](CC2CCCCC2)NC2CCCCC2)cc1 [Example 5, 2-chlorophenyl (3S)-3-{[4-(aminomethyl)benzyl]carbamoyl}-4-(N,3-dicyclohexyl-D-alanyl)piperazine-1-carboxylate] | 5.9 |
